Results reported in patent US9776995B2, “Bicyclic sulfonamide compounds as sodium channel inhibitors” (AMGEN INC., priority 2013, dated 2017).
Where two headings read alike, the source gives them in different places.

Tests used:
Nav 1.7 = Nav 1.7 (Homo sapiens (Human), UniProt Q15858); assay: in-vitro Nav 1.7 PX data; format: cell-based
Nav 1.5 = Nav 1.5 (Homo sapiens (Human), UniProt Q14524); assay: in-vitro Nav 1.5 PX data; conditions: read-out: Nav 1.5 PX IC50
Nav 1.5, sequence (Q14524 whole entry): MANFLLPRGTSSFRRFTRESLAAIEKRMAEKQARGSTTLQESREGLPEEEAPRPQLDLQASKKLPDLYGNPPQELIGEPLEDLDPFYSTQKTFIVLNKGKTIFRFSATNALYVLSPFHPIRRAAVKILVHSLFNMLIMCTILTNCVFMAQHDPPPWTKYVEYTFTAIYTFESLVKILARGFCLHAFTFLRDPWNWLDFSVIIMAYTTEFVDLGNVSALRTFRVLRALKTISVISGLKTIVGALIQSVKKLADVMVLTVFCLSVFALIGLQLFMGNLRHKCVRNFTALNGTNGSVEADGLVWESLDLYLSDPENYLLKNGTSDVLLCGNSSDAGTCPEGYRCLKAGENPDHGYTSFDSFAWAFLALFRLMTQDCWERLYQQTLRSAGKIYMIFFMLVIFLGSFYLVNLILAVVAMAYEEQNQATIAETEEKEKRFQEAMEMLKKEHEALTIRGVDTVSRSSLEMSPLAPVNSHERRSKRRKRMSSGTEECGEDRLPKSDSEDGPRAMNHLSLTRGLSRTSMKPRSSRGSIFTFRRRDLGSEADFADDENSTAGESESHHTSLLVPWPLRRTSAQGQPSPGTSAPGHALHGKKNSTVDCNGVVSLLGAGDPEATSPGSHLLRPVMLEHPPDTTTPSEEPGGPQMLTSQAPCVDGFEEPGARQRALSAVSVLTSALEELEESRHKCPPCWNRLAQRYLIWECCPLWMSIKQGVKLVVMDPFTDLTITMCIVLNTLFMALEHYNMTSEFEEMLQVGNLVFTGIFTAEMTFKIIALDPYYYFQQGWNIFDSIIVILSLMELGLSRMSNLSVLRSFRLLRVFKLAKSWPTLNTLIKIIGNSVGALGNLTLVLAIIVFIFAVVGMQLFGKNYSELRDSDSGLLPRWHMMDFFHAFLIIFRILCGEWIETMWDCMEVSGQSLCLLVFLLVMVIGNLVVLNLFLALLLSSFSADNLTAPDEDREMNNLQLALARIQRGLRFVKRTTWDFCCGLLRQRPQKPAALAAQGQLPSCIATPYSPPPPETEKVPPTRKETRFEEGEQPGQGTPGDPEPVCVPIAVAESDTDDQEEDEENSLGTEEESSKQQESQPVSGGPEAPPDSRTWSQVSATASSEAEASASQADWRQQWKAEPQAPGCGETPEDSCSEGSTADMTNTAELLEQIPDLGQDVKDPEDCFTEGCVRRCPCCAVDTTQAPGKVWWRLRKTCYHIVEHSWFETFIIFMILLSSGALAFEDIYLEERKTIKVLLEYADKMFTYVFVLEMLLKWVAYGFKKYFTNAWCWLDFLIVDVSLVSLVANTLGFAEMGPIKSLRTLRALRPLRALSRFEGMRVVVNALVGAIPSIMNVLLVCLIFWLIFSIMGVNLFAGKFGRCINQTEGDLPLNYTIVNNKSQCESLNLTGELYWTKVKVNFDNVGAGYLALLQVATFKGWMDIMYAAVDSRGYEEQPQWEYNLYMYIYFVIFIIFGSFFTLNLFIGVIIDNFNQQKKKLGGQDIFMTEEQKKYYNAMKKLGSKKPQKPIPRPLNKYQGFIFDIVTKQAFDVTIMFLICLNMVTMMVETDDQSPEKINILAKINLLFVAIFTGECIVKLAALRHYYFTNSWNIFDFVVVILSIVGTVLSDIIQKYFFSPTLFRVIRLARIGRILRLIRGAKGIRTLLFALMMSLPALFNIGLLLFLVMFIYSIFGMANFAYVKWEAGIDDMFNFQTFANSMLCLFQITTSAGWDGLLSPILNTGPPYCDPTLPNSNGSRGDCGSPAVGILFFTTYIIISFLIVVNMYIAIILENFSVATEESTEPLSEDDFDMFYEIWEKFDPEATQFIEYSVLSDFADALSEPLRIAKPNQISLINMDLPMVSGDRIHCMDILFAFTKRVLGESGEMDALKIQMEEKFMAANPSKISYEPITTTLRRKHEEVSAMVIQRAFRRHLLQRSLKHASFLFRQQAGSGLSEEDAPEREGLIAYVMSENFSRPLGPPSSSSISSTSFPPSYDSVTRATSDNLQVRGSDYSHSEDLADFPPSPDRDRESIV

Nav 1.7, sequence (Q15858 whole entry): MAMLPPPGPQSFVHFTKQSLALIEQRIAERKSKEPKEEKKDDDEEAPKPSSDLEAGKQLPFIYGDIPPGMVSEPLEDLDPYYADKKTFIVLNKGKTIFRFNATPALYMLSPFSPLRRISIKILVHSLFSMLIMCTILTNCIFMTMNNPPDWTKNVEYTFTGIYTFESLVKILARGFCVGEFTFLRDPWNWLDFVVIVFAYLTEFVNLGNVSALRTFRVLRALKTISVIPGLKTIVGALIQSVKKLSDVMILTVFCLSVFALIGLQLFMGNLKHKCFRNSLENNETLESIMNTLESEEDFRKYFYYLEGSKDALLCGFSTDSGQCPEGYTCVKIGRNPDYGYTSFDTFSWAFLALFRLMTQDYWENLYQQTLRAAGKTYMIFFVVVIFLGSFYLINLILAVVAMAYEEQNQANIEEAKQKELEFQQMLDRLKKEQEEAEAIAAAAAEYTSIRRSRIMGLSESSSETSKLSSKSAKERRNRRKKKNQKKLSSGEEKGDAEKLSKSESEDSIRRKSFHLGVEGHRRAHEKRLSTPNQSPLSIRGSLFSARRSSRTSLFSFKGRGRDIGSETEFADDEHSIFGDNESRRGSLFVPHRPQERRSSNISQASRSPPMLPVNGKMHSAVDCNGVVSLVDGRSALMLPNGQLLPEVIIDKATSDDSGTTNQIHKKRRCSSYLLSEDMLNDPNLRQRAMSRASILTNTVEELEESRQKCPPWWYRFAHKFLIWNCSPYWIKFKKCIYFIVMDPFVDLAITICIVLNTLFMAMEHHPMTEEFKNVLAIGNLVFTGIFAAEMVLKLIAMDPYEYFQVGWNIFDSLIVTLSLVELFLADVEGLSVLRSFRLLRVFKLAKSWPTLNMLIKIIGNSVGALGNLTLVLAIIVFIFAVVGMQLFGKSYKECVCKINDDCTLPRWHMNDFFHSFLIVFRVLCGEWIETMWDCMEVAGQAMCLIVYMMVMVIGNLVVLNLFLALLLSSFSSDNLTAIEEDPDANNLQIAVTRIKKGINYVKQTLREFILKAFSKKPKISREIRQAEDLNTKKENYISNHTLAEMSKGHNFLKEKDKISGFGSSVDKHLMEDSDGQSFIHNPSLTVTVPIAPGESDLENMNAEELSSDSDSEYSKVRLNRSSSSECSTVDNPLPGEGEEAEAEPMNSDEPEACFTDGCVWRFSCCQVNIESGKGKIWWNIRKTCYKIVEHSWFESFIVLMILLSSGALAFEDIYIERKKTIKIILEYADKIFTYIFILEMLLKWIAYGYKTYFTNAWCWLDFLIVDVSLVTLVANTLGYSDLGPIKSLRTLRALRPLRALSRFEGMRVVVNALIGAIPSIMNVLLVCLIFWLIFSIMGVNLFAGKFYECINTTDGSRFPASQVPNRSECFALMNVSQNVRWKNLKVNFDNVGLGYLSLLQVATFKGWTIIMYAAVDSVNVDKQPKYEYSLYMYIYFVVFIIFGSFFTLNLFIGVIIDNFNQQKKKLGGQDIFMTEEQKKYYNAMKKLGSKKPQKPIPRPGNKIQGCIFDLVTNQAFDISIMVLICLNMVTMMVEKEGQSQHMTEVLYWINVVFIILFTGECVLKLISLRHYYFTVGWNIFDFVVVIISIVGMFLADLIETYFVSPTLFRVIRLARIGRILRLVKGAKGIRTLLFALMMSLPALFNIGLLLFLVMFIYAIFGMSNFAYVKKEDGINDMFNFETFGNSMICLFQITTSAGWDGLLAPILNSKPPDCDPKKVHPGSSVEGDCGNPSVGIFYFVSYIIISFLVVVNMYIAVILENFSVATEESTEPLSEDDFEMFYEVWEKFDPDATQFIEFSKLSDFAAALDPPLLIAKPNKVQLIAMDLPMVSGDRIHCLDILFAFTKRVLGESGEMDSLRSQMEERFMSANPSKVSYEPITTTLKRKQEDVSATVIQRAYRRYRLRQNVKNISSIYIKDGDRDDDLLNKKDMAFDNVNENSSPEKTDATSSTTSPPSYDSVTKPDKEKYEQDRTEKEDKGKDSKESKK

Q: How did the IC50 (Nav 1.7; in-vitro PX) turn out when `COc1cc(-c2cc(F)cc(F)c2)c(Cl)cc1-c1nn(C)c(=O)c2cc(S(=O)(=O)Nc3ccon3)ccc12` [Example 233, 1-(2-chloro-3′,5′-difluoro-5-methoxy-4-biphenylyl)-N-3-isoxazolyl-3-methyl-4-oxo-3,4-dihydro-6-phthalazinesulfonamide] was run?
A: 138 nM

Q: What about the IC50 (Nav 1.5; in-vitro PX) of the same molecule?
A: > 30000 nM

Q: `COc1cc(-c2cccc(F)c2)c(C#N)cc1-c1nccc2cc(S(=O)(=O)Nc3ccncn3)ccc12` [Example 144, 1-(2-cyano-3′-fluoro-5-methoxy-4-biphenylyl)-N-4-pyrimidinyl-6-isoquinolinesulfonamide] was tested. Which IC50 (Nav 1.7; in-vitro Nav 1.7 PX data) did it give?
A: 106 nM

Q: And the IC50 (Nav 1.5; in-vitro Nav 1.5 PX data)?
A: > 10000 nM

Q: `COc1cc(-c2cccc(F)c2)ccc1-c1nccc2cc(S(=O)(=O)Nc3ncns3)c(F)cc12` [Example 44, 7-FLUORO-1-(3′-FLUORO-3-METHOXY-[1,1′-BIPHENYL]-4-YL)-N-(1,2,4-THIADIAZOL-5-YL)ISOQUINOLINE-6-SULFONAMIDE] was tested. Which IC50 (Nav 1.7) did it give?
A: 48.8 nM

Q: And the IC50 (Nav 1.5; PatchXpress (PX), in vitro)?
A: > 10000 nM

Q: What does the source list for `COc1cc(-c2ccc(Cl)c(F)c2)c(C#N)cc1-c1nccc2cc(S(=O)(=O)Nc3ccon3)ccc12` [Example 76, 1-(4′-chloro-2-cyano-3′-fluoro-5-methoxy-4-biphenylyl)-N-3-isoxazolyl-6-isoquinolinesulfonamide]?
A: IC50 (Nav 1.7; PatchXpress (PX), in vitro): 58.5 nM; IC50 (Nav 1.5; PatchXpress (PX), in vitro): > 10000 nM

Q: For `COc1cc(-c2cccc(C(F)(F)F)c2)c(C#N)cc1-c1nccc2cc(S(=O)(=O)Nc3ccon3)ccc12` [Example 1, 1-(2-CYANO-5-METHOXY-3′-(TRIFLUOROMETHYL)-[1,1′-BIPHENYL]-4-YL)-N-(ISOXAZOL-3-YL)ISOQUINOLINE-6-SULFONAMIDE], which IC50 (Nav 1.7; in-vitro Nav 1.7 PX data) is on record?
A: 54.7 nM

Q: And the IC50 (Nav 1.5; in-vitro Nav 1.5 PX data)?
A: > 10000 nM

Q: With `COc1cc(-c2cccc(C(F)(F)F)c2)c(C#N)cc1-c1nccc2cc(S(=O)(=O)Nc3ccncn3)ccc12` [Example 184, 1-(2-cyano-5-methoxy-3′-(trifluoromethyl)-4-biphenylyl)-N-4-pyrimidinyl-6-isoquinolinesulfonamide] as the molecule, how does the IC50 (Nav 1.7; in-vitro PX (PatchXpress) data) read?
A: 36.3 nM

Q: What about the IC50 (Nav 1.5; in-vitro PX (PatchXpress) data) of the same molecule?
A: > 30000 nM

Q: Which IC50 (Nav 1.7; in-vitro PX) does the source give for `COc1cc(-c2cccc(F)c2)c(Cl)cc1-c1ncnc2cc(S(=O)(=O)Nc3ncccn3)ccc12` [Example 243, 4-(2-chloro-3′-fluoro-5-methoxy-4-biphenylyl)-N-2-pyrimidinyl-7-quinazolinesulfonamide] here?
A: 80.3 nM

Q: What about the IC50 (Nav 1.5; in-vitro PX) of the same molecule?
A: > 10000 nM

Q: `N#CCOc1cc(-c2cccc(F)c2)ccc1-c1nccc2cc(S(=O)(=O)Nc3ccon3)ccc12` [Example 231, 1-(3-(cyanomethoxy)-3′-fluoro-4-biphenylyl)-N-3-isoxazolyl-6-isoquinolinesulfonamide] was tested. Which IC50 (Nav 1.7; in-vitro PX) did it give?
A: 140 nM

Q: What about the IC50 (Nav 1.5; in-vitro PX) of the same molecule?
A: > 30000 nM

Q: With `COc1cc(-c2cc(F)cc(F)c2)c(C#N)cc1-c1nccc2cc(S(=O)(=O)Nc3ncccn3)ccc12` [Example 107, 1-(2-cyano-3′,5′-difluoro-5-methoxy-4-biphenylyl)-N-2-pyrimidinyl-6-isoquinolinesulfonamide] as the molecule, how does the IC50 (Nav 1.7; in-vitro PX data) read?
A: 255 nM

Q: What about the IC50 (Nav 1.5; in-vitro PX data) of the same molecule?
A: > 10000 nM

Q: With `COc1nc(N2CCC(F)(F)CC2)c(Cl)cc1-c1nccc2cc(S(=O)(=O)Nc3nncs3)ccc12` [Example 244, 1-(5-chloro-6-(4,4-difluoro-1-piperidinyl)-2-methoxy-3-pyridinyl)-N-1,3,4-thiadiazol-2-yl-6-isoquinolinesulfonamide] as the molecule, how does the IC50 (Nav 1.7; in-vitro PX) read?
A: 424 nM

Q: And the IC50 (Nav 1.5; in-vitro PX)?
A: > 30000 nM

Q: With `COc1nc(N2CC(F)(F)C2)c(Cl)cc1-c1nccc2cc(S(=O)(=O)Nc3nncs3)ccc12` [Example 236, 1-(5-chloro-6-(3,3-difluoro-1-azetidinyl)-2-methoxy-3-pyridinyl)-N-1,3,4-thiadiazol-2-yl-6-isoquinolinesulfonamide] as the molecule, how does the IC50 (Nav 1.7; in-vitro PX) read?
A: 382 nM

Q: What about the IC50 (Nav 1.5; in-vitro PX) of the same molecule?
A: > 30000 nM

Q: How did the IC50 (Nav 1.7; in-vitro PX data) turn out when `COc1cc(-c2cc(C)cc(Cl)c2)c(C#N)cc1-c1nccc2cc(S(=O)(=O)Nc3ccon3)ccc12` [Example 114, 1-(3′-chloro-2-cyano-5-methoxy-5′-methyl-4-biphenylyl)-N-3-isoxazolyl-6-isoquinolinesulfonamide] was run?
A: 28.8 nM

Q: And the IC50 (Nav 1.5; in-vitro PX data)?
A: > 10000 nM

Q: Which results are given for `COc1cc(-c2cc(C)cc(F)c2)c(C#N)cc1-c1nccc2cc(S(=O)(=O)Nc3nncs3)ccc12` [Example 222, 1-(2-cyano-3′-fluoro-5-methoxy-5′-methyl-4-biphenylyl)-N-1,3,4-thiadiazol-2-yl-6-isoquinolinesulfonamide]?
A: IC50 (Nav 1.7; in-vitro PX): 21.8 nM; IC50 (Nav 1.5; in-vitro PX): > 10000 nM

Q: For `COc1cc(-c2cccc(C)c2)c(C#N)cc1-c1nccc2cc(S(=O)(=O)Nc3nncs3)ccc12` [Example 217, 1-(2-cyano-5-methoxy-3′-methyl-4-biphenylyl)-N-1,3,4-thiadiazol-2-yl-6-isoquinolinesulfonamide], which IC50 (Nav 1.7; in-vitro PX) is on record?
A: 22.3 nM

Q: And the IC50 (Nav 1.5; in-vitro PX)?
A: > 10000 nM

Q: Which results are given for `COc1cc(-c2ccccc2)ccc1-c1nccc2cc(S(=O)(=O)Nc3ccon3)ccc12` [Example 49, N-(ISOXAZOL-3-YL)-1-(3-METHOXY-[1,1′-BIPHENYL]-4-YL)ISOQUINOLINE-6-SULFONAMIDE]?
A: IC50 (Nav 1.7; PatchXpress (PX), in vitro): 311 nM; IC50 (Nav 1.5; PatchXpress (PX), in vitro): > 10000 nM

Q: Which results are given for `COc1cc(-c2cc(F)cc(F)c2)ccc1-c1nccc2cc(S(=O)(=O)Nc3ncon3)ccc12` [Example 127, 1-(3′,5′-difluoro-3-methoxy-4-biphenylyl)-N-1,2,4-oxadiazol-3-yl-6-isoquinolinesulfonamide]?
A: IC50 (Nav 1.7; in-vitro PX data): 106 nM; IC50 (Nav 1.5; in-vitro PX data): > 10000 nM

Q: Which IC50 (Nav 1.7; in-vitro PX) does the source give for `COc1cc(-c2ccc(F)c(C)c2)c(C#N)cc1-c1nccc2cc(S(=O)(=O)Nc3nncs3)ccc12` [Example 230, 1-(2-cyano-4′-fluoro-5-methoxy-3′-methyl-4-biphenylyl)-N-1,3,4-thiadiazol-2-yl-6-isoquinolinesulfonamide] here?
A: 12.7 nM

Q: And the IC50 (Nav 1.5; in-vitro PX)?
A: > 10000 nM

Q: How did the IC50 (Nav 1.7; PatchXpress (PX), in vitro) turn out when `COc1cc(-c2cc(C)cc(F)c2)c(C#N)cc1-c1nccc2cc(S(=O)(=O)Nc3ccon3)ccc12` [Example 77, 1-(2-cyano-3′-fluoro-5-methoxy-5′-methyl-4-biphenylyl)-N-3-isoxazolyl-6-isoquinolinesulfonamide] was run?
A: 72.5 nM

Q: What about the IC50 (Nav 1.5; PatchXpress (PX), in vitro) of the same molecule?
A: > 10000 nM

Q: How did the IC50 (Nav 1.7; PatchXpress (PX), in vitro) turn out when `COc1nc(OCC2CCC(F)(F)CC2)ccc1-c1nccc2cc(S(=O)(=O)Nc3ccncn3)ccc12` [Example 69, 1-(6-((4,4-difluorocyclohexyl)methoxy)-2-methoxy-3-pyridinyl)-N-4-pyrimidinyl-6-isoquinolinesulfonamide] was run?
A: 459 nM

Q: What about the IC50 (Nav 1.5; PatchXpress (PX), in vitro) of the same molecule?
A: > 30000 nM

Q: What does the source list for `COc1cc(-c2cccc(C(F)(F)F)c2)c(F)cc1-c1nn(C)c(=O)c2cc(S(=O)(=O)Nc3ccon3)ccc12` [Example 25, 1-(2-FLUORO-5-METHOXY-3′-(TRIFLUOROMETHYL)-[1,1′-BIPHENYL]-4-YL)-N-(ISOXAZOL-3-YL)-3-METHYL-4-OXO-3,4-DIHYDROPHTHALAZINE-6-SULFONAMIDE]?
A: IC50 (Nav 1.7): 94.1 nM; IC50 (Nav 1.5; in-vitro PX): > 10000 nM

Q: `COc1cc(-c2ccc(F)c(C)c2)c(C#N)cc1-c1nccc2cc(S(=O)(=O)Nc3ccon3)ccc12` [Example 85, 1-(2-cyano-4′-fluoro-5-methoxy-3′-methyl-4-biphenylyl)-N-3-isoxazolyl-6-isoquinolinesulfonamide] was tested. Which IC50 (Nav 1.7; PatchXpress (PX), in vitro) did it give?
A: 28.8 nM

Q: And the IC50 (Nav 1.5; PatchXpress (PX), in vitro)?
A: > 10000 nM

Q: Which IC50 (Nav 1.7; in-vitro PX data) does the source give for `COc1cc(-c2cccc(C(F)(F)F)c2)c(F)cc1-c1nccc2cc(S(=O)(=O)Nc3ccon3)ccc12` [Example 115, 1-(2-fluoro-5-methoxy-3′-(trifluoromethyl)-4-biphenylyl)-N-3-isoxazolyl-6-isoquinolinesulfonamide] here?
A: 13.5 nM

Q: And the IC50 (Nav 1.5; in-vitro PX data)?
A: > 10000 nM

Q: With `COc1cc(-c2cccc(F)c2)c(C#N)cc1-c1ncnc2cc(S(=O)(=O)Nc3nncs3)ccc12` [Example 241, 4-(2-cyano-3′-fluoro-5-methoxy-4-biphenylyl)-N-1,3,4-thiadiazol-2-yl-7-quinazolinesulfonamide] as the molecule, how does the IC50 (Nav 1.7; in-vitro PX) read?
A: 69.1 nM

Q: What about the IC50 (Nav 1.5; in-vitro PX) of the same molecule?
A: > 10000 nM

Q: For `COc1cc(-c2cccc(F)c2)c(C#N)cc1-c1ncnc2cc(S(=O)(=O)Nc3ccon3)ccc12` [Example 203, 4-(2-cyano-3′-fluoro-5-methoxy-4-biphenylyl)-N-3-isoxazolyl-7-quinazolinesulfonamide], which IC50 (Nav 1.7; in-vitro PX (PatchXpress) data) is on record?
A: 28.8 nM

Q: And the IC50 (Nav 1.5; in-vitro PX (PatchXpress) data)?
A: > 10000 nM

Q: How did the IC50 (Nav 1.7; PatchXpress (PX), in vitro) turn out when `COc1cc(-c2ccccc2C)c(C#N)cc1-c1nccc2cc(S(=O)(=O)Nc3ccon3)ccc12` [Example 79, 1-(2-cyano-5-methoxy-2′-methyl-4-biphenylyl)-N-3-isoxazolyl-6-isoquinolinesulfonamide] was run?
A: 88 nM

Q: And the IC50 (Nav 1.5; PatchXpress (PX), in vitro)?
A: > 10000 nM

Q: How did the IC50 (Nav 1.7; in-vitro Nav 1.7 PX data) turn out when `Cc1ccc(Oc2ccccc2)cc1-c1nccc2cc(S(=O)(=O)Nc3ccncn3)ccc12` [Example 39, 1-(2-METHYL-5-PHENOXYPHENYL)-N-(PYRIMIDIN-4-YL)ISOQUINOLINE-6-SULFONAMIDE] was run?
A: 488 nM

Q: What about the IC50 (Nav 1.5; in-vitro Nav 1.5 PX data) of the same molecule?
A: > 10000 nM

Q: What does the source list for `COc1cc(-c2cccc(C(F)(F)F)c2)ccc1-c1nccc2cc(S(=O)(=O)Nc3ccon3)ccc12` [Example 6, N-(ISOXAZOL-3-YL)-1-(3-METHOXY-3′-(TRIFLUOROMETHYL)-[1,1′-BIPHENYL]-4-YL)ISOQUINOLINE-6-SULFONAMIDE]?
A: IC50 (Nav 1.7): 78.9 nM; IC50 (Nav 1.5; in-vitro PX data): > 10000 nM

Q: `COc1cc(-c2ccc(F)c(F)c2)c(C#N)cc1-c1nccc2cc(S(=O)(=O)Nc3ccncn3)ccc12` [Example 197, 1-(2-cyano-3′,4′-difluoro-5-methoxy-4-biphenylyl)-N-4-pyrimidinyl-6-isoquinolinesulfonamide] was tested. Which IC50 (Nav 1.7; in-vitro PX (PatchXpress) data) did it give?
A: 76 nM

Q: What about the IC50 (Nav 1.5; in-vitro PX (PatchXpress) data) of the same molecule?
A: > 10000 nM

Q: Which IC50 (Nav 1.7; in-vitro PX (PatchXpress) data) does the source give for `COc1cc(Oc2cc(C)ccc2F)ccc1-c1nccc2cc(S(=O)(=O)Nc3nncs3)ccc12` [Example 190, 1-(4-(2-fluoro-5-methylphenoxy)-2-methoxyphenyl)-N-1,3,4-thiadiazol-2-yl-6-isoquinolinesulfonamide] here?
A: 243 nM

Q: What about the IC50 (Nav 1.5; in-vitro PX (PatchXpress) data) of the same molecule?
A: > 10000 nM

Q: Which IC50 (Nav 1.7; in-vitro PX data) does the source give for `COc1cc(-c2cc(F)cc(F)c2)ccc1-c1nccc2cc(S(=O)(=O)Nc3cccnn3)ccc12` [Example 138, 1-(3′,5′-difluoro-3-methoxy-4-biphenylyl)-N-3-pyridazinyl-6-isoquinolinesulfonamide] here?
A: 251 nM

Q: What about the IC50 (Nav 1.5; in-vitro PX data) of the same molecule?
A: > 10000 nM

Q: `COc1cc(-c2ccc(F)c(F)c2)c(C#N)cc1-c1nccc2cc(S(=O)(=O)Nc3ccon3)ccc12` [Example 80, 1-(2-cyano-3′,4′-difluoro-5-methoxy-4-biphenylyl)-N-3-isoxazolyl-6-isoquinolinesulfonamide] was tested. Which IC50 (Nav 1.7; PatchXpress (PX), in vitro) did it give?
A: 28.2 nM

Q: What about the IC50 (Nav 1.5; PatchXpress (PX), in vitro) of the same molecule?
A: > 10000 nM
